Results reported in patent publication US20220323406A1, “METHODS AND COMPOSITIONS FOR DIFFERENTIATING STEM CELLS” (Massachusetts Institute of Technology, priority 2019, published 2022).
Structures can show the parent of a compound that is named as a salt.

Assays:
[1] = system: ENR+CD organoids (ISC to Paneth cell differentiation); assay: Primary screen: basal (non-stimulated) lysozyme secretion LYZ.NS, 2.5-D 384-well ENR+CD organoid differentiation; assay type: cell-based, mouse
From the text: (§1) High-throughput screening.

[2] = system: ENR+CD organoids (ISC to Paneth cell differentiation); assay: Primary screen: CCh-stimulated lysozyme secretion LYZ.S, 2.5-D 384-well ENR+CD organoid differentiation; assay type: cell-based, mouse; conditions: primary screen
From the text: as §1

ENR+CD organoids = assay: Primary screen: ATP (CellTiter-Glo 3D, CTG) cell number/viability, 2.5-D 384-well ENR+CD organoids;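 also: compounds given at plating and again on day 3 over a 6-day differentiation from ENR+CV stem-cell-enriched precursors, ATP measured on day 6, plate median as control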
[3] = primary screen, standard z score, dose 0.40 uM
[4] = primary screen, standard z score, dose 2.00 uM
[5] = primary screen, standard z score, dose 10.00 uM
[6] = primary screen, dose 0.08 uM, standard z score
[7] = primary screen, dose 0.40 uM, standard z score
[8] = primary screen, dose 2.00 uM, standard z score
[9] = primary screen, dose 10.00 uM, standard z score
[10] = primary screen; dose 0.08 uM; FC vs plate median
[11] = primary screen; dose 0.40 uM; FC vs plate median
[12] = primary screen; dose 2.00 uM; FC vs plate median
[13] = primary screen; dose 10.00 uM; FC vs plate median
[14] = primary screen, dose 0.08 uM, FC relative to plate median
[15] = primary screen, dose 0.40 uM, FC relative to plate median
[16] = primary screen, dose 2.00 uM, FC relative to plate median
[17] = primary screen, dose 10.00 uM, FC relative to plate median
[18] = primary screen, standard z score, dose 0.08 uM

Row | Compound | Dose.FC.LYZ.NS ([1]; primary screen, dose 0.08 uM) [log2 fold change] | Z.LYZ.NS (standard z score) ([1]; primary screen, dose 0.08 uM) | Dose.FC.LYZ.NS ([1]; primary screen, dose 0.40 uM) [log2 fold change] | Dose.FC.LYZ.NS ([1]; primary screen, dose 2.00 uM) [log2 fold change] | Dose.FC.LYZ.NS ([1]; primary screen, dose 10.00 uM) [log2 fold change] | Z.LYZ.NS [1, 3] | Z.LYZ.NS [1, 4] | Z.LYZ.NS [1, 5] | Dose.FC.LYZ.S ([2]; dose 0.08 uM) [log2 fold change] | Dose.FC.LYZ.S ([2]; dose 0.40 uM) [log2 fold change] | Dose.FC.LYZ.S ([2]; dose 2.00 uM) [log2 fold change] | Dose.FC.LYZ.S ([2]; dose 10.00 uM) [log2 fold change] | Dose.FC.CTG (ENR+CD organoids; primary screen, dose 0.08 uM) [log2 fold change] | Dose.FC.CTG (ENR+CD organoids; primary screen, dose 0.40 uM) [log2 fold change] | Dose.FC.CTG (ENR+CD organoids; primary screen, dose 2.00 uM) [log2 fold change] | Dose.FC.CTG (ENR+CD organoids; primary screen, dose 10.00 uM) [log2 fold change] | Z.LYZ.NS [1, 6] | Z.LYZ.NS [1, 7] | Z.LYZ.NS [1, 8] | Z.LYZ.NS [1, 9] | further results
1 | CCCCN1CCCCC1C(=O)Nc1c(C)cccc1C (centres unmarked) [Bupivacaine HCl] | 0.002 | 0.016 | −0.100 | −0.137 | −0.195 | −0.871 | −1.196 | −1.700 | 0.082 | −0.169 | −0.210 | −0.295 | −0.003 | −0.217 | −0.300 | −0.364 |  |  |  |  | 
2 | CC(=O)c1cc([N+](=O)[O-])c(Sc2ccc(F)cc2F)s1 [P22077] |  |  |  |  |  |  |  |  |  |  |  |  |  |  |  |  | 0.338 | −0.041 | 0.248 | −0.487 | Dose.FC.LYZ.NS [1, 10]: 0.039 log2 fold change; Dose.FC.LYZ.NS [1, 11]: −0.005 log2 fold change; Dose.FC.LYZ.NS [1, 12]: 0.028 log2 fold change; Dose.FC.LYZ.NS [1, 13]: −0.056 log2 fold change; Dose.FC.LYZ.S ([2]; dose 0.08 uM, FC vs plate median): −0.182 log2 fold change; Dose.FC.LYZ.S ([2]; dose 0.40 uM, FC vs plate median): 0.065 log2 fold change; Dose.FC.LYZ.S ([2]; dose 2.00 uM, FC vs plate median): −0.007 log2 fold change; Dose.FC.LYZ.S ([2]; dose 10.00 uM, FC vs plate median): −0.063 log2 fold change; Z.CTG (ENR+CD organoids; [6]): −0.516; Z.CTG (ENR+CD organoids; [7]): 0.117; Z.CTG (ENR+CD organoids; [8]): −0.320; Z.CTG (ENR+CD organoids; [9]): −0.311; Dose.FC.CTG (ENR+CD organoids; [10]): −0.216 log2 fold change; Dose.FC.CTG (ENR+CD organoids; [11]): 0.049 log2 fold change; Dose.FC.CTG (ENR+CD organoids; [12]): −0.134 log2 fold change; Dose.FC.CTG (ENR+CD organoids; [13]): −0.130 log2 fold change
3 | CC(=O)Nc1nc2c(Oc3cc(-c4ccc(C(F)(F)F)cc4)ncn3)cccc2s1 [AMG-517] | 0.020 | 0.178 | 0.060 | −0.006 | 0.031 |  |  |  | 0.084 | 0.060 | 0.002 | 0.266 | 0.161 | 0.113 | 0.112 | 0.056 |  |  |  |  | Z.LYZ.NS (standard z score) ([1]; primary screen, dose 0.40 uM): 0.522; Z.LYZ.NS (standard z score) ([1]; primary screen, dose 2.00 uM): −0.051; Z.LYZ.NS (standard z score) ([1]; primary screen, dose 10.00 uM): 0.267
4 | C[S+]([O-])c1ccc(-c2nc(-c3ccc(F)cc3)c(-c3ccncc3)[nH]2)cc1 (centres unmarked) [SB203580] |  |  |  |  |  |  |  |  |  |  |  |  |  |  |  |  | 0.805 | 1.109 | 0.453 | 0.199 | Dose.FC.LYZ.NS [1, 14]: 0.092 log2 fold change; Dose.FC.LYZ.NS [1, 15]: 0.127 log2 fold change; Dose.FC.LYZ.NS [1, 16]: 0.052 log2 fold change; Dose.FC.LYZ.NS [1, 17]: 0.023 log2 fold change; Dose.FC.LYZ.S ([2]; dose 0.08 uM, FC relative to plate median): 0.148 log2 fold change; Dose.FC.LYZ.S ([2]; dose 0.40 uM, FC relative to plate median): 0.098 log2 fold change; Dose.FC.LYZ.S ([2]; dose 2.00 uM, FC relative to plate median): 0.077 log2 fold change; Dose.FC.LYZ.S ([2]; dose 10.00 uM, FC relative to plate median): 0.069 log2 fold change; Dose.FC.CTG (ENR+CD organoids; [14]): 0.201 log2 fold change; Z.CTG (ENR+CD organoids; [6]): 0.479; Dose.FC.CTG (ENR+CD organoids; [15]): 0.149 log2 fold change; Z.CTG (ENR+CD organoids; [7]): 0.356; Dose.FC.CTG (ENR+CD organoids; [16]): 0.237 log2 fold change; Z.CTG (ENR+CD organoids; [8]): 0.567; Dose.FC.CTG (ENR+CD organoids; [17]): 0.182 log2 fold change; Z.CTG (ENR+CD organoids; [9]): 0.435
5 | CS(=O)(=O)N1CCN(Cc2cc3nc(-c4cccc5[nH]ncc45)nc(N4CCOCC4)c3s2)CC1 [GDC-0941] | 0.008 |  | −0.013 | −0.128 | −0.156 | −0.112 | −1.113 | −1.362 | 0.018 | −0.076 | −0.248 | −0.257 | 0.283 | 0.022 | −0.197 | −1.223 |  |  |  |  | Z.LYZ.NS [1, 18]: 0.070; Z.CTG (ENR+CD organoids; [18]): 0.677; Z.CTG (ENR+CD organoids; [3]): 0.053; Z.CTG (ENR+CD organoids; [4]): −0.472; Z.CTG (ENR+CD organoids; [5]): −2.921
